Results on eleven compounds are retold here after ChEMBL document CHEMBL4368927, “A review on flavones targeting serine/threonine protein kinases for potential anticancer drugs” (Bioorg Med Chem, 2019).

Assay [1] deals with CDK7/Cyclin H/MNAT1 (Homo sapiens, UniProt P50613). Nature of the assay: Inhibition of recombinant human full length C-terminal His6-tagged and N-terminal GST-tagged CDK7/cyclinH/MAT1 expressed in baculovirus Sf21 insect cells after 40 mins in presence of [gamma-32P]ATP by scintillation counting analysis.
CDK7/Cyclin H/MNAT1, sequence (P51946 whole entry): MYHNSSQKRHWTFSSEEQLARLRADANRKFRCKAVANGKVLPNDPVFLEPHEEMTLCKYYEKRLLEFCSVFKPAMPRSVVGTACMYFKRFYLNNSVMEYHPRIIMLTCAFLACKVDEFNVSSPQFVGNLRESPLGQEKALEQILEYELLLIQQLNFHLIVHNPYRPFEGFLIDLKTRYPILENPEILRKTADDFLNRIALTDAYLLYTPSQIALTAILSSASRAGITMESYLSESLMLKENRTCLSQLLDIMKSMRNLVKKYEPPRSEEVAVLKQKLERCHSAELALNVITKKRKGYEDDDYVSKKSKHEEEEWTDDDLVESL
CDK7/Cyclin H/MNAT1, sequence (P50613 whole entry): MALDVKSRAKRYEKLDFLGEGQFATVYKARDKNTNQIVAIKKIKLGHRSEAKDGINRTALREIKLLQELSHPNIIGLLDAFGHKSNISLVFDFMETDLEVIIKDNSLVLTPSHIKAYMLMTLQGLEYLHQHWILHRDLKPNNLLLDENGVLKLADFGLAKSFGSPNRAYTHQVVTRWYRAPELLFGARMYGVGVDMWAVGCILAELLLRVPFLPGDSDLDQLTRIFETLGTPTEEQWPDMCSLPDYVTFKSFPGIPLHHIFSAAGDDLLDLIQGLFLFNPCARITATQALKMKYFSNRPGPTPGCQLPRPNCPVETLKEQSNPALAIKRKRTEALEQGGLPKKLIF
CDK7/Cyclin H/MNAT1, sequence (P51948 whole entry, further chain): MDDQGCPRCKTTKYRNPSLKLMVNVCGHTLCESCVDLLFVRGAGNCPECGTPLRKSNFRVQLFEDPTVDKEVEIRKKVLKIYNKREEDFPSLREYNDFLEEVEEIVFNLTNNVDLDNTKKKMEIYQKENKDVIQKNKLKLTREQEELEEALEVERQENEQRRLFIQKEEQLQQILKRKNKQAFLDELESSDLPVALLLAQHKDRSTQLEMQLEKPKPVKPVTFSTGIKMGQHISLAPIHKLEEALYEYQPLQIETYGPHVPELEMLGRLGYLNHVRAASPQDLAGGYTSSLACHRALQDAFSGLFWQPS
The target in assay [2] is Protein kinase C (PKC) (Rattus norvegicus) (UniProt P05696+P68403+P09216+P63319+P09215+Q64617+Q9WTQ0+P09217). Description: Inhibition of PKC in rat brain homogenate at 50 uM using FKKSFKL-NH2 as substrate preincubated for 10 mins followed by substrate addition and measured after 5 mins in presence of [gamma-32P]ATP by liquid scintillation counting analysis relative to control. In kind it is tissue-based.

For assay [3], the target named is Cyclin-dependent kinase 2/cyclin E1 (Homo sapiens, UniProt P24941). Description: Inhibition of human CDK2/cyclin E expressed in baculovirus expression system after 30 mins in presence of [gamma-33P]ATP by scintillation counting analysis.
Assay [4] deals with HT-29. Nature of the assay: Antiproliferative activity against human HT-29 cells assessed as reduction in [3H]-thymidine incorporation after 48 hrs by liquid scintillation assay. Format: functional, cell-based. For orientation: Incorporation of labelled thymidine or its analogues reports DNA synthesis.
In assay [5] the target is Cyclin-dependent kinase 1 (Homo sapiens, UniProt P06493). Description: Inhibition of human CDK1.
Cyclin-dependent kinase 1, sequence (P06493 whole entry): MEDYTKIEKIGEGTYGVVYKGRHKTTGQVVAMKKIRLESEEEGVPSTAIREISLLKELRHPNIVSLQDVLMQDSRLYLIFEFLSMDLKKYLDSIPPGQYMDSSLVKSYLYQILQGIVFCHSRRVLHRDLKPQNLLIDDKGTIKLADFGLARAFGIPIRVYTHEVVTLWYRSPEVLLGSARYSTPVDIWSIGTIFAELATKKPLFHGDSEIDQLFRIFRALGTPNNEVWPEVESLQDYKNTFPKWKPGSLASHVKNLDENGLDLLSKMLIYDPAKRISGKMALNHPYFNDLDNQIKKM
Assay [6] deals with Cyclin-dependent kinase 4 (Homo sapiens, UniProt P11802). Nature of the assay: Inhibition of human CDK4.
Cyclin-dependent kinase 4, sequence (P11802 whole entry): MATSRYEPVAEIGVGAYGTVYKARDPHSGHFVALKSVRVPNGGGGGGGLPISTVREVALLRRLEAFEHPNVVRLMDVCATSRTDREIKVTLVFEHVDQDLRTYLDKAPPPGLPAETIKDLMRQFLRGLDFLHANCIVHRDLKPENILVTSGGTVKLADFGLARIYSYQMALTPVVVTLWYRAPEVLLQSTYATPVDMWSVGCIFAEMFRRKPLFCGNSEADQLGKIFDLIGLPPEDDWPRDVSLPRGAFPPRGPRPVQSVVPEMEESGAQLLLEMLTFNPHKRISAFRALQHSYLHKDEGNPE
In assay [7] the target is Cyclin-dependent kinase 6 (Homo sapiens, UniProt Q00534). Description: Inhibition of human CDK6.
Cyclin-dependent kinase 6, sequence (Q00534 whole entry): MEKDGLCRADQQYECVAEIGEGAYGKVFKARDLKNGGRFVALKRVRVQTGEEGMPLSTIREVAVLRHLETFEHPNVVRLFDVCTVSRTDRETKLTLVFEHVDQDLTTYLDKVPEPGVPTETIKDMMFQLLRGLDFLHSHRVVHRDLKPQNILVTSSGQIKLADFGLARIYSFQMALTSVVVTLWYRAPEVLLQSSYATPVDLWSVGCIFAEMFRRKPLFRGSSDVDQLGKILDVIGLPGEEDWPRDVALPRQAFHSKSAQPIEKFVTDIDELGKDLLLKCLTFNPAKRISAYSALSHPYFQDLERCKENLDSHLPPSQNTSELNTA
Assay [8] concerns the target Protein kinase C (PKC). Description: Inhibition of PKC in rat brain homogenate using FKKSFKL-NH2 as substrate preincubated for 10 mins followed by substrate addition and measured after 5 mins in presence of [gamma-32P]ATP by liquid scintillation counting analysis. In kind it is tissue-based.
The target of assay [9] is Serine/threonine-protein kinase pim-1 (Homo sapiens) (UniProt P11309).
Serine/threonine-protein kinase pim-1 (Homo sapiens), sequence (P11309 whole entry, looked up): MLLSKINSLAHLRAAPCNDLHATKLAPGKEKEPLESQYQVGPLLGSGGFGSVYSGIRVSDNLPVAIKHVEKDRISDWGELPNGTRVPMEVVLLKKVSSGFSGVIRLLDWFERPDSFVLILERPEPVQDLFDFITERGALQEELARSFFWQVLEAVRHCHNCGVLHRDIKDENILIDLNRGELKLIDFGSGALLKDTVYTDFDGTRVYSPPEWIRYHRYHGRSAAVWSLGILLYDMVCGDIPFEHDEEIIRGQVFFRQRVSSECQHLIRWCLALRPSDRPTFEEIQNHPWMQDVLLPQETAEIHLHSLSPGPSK
Description: Inhibition of PIM1 in human RWPE2 cells assessed as inhibition of cell growth
The target of assay [10] is Mitogen-activated protein kinase 3 (Homo sapiens, UniProt P27361). Description: Inhibition of Erk-1 (unknown origin).
Mitogen-activated protein kinase 3, sequence (P27361 whole entry): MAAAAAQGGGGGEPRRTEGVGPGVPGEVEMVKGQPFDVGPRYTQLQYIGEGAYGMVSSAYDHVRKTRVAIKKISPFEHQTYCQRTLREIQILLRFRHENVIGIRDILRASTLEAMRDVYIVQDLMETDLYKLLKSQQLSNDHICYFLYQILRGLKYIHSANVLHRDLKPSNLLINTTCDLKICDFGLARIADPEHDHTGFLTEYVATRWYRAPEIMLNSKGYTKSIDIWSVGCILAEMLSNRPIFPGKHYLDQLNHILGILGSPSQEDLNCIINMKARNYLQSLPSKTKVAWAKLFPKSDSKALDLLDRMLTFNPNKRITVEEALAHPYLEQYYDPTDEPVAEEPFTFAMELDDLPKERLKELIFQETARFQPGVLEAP
A short description of assay [11]: Inhibition of CDK6/cyclin D (unknown origin). Details: species or system Homo sapiens.
Assay [12] is described as follows: Inhibition of protein kinase A (unknown origin). Further details: species or system Homo sapiens.
Assay [13] addresses Proto-oncogene tyrosine-protein kinase Src (Homo sapiens, UniProt P12931). Description: Inhibition of pp60 src (unknown origin).

Proto-oncogene tyrosine-protein kinase Src, sequence (P12931 2-536 limits assumed): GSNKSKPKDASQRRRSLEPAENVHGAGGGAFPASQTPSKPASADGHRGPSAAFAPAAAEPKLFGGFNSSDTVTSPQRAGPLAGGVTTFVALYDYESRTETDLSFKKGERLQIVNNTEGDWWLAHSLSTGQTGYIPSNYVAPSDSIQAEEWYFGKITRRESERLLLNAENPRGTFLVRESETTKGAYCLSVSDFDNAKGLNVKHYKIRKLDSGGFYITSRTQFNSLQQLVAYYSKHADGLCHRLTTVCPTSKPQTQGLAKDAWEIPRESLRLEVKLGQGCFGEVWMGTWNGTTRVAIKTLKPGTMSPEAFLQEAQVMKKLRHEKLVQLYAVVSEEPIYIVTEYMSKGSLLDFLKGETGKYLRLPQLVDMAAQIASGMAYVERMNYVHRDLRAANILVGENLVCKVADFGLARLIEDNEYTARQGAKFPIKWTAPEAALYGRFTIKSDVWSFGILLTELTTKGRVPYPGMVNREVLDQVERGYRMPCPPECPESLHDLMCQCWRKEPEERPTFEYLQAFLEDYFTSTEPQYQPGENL

As to `COc1c(O)cc(O)c2c(=O)cc(-c3ccccc3)oc12` [WOGONIN], the IC50 in assay [1] stood at 12.3 µM. As to `O=c1cc(-c2ccc(O)c(O)c2)oc2cc(O)cc(O)c12`, in assay [2], the inhibition was 70%. For the compound `CN1CC[C@@H](c2c(O)cc(O)c3c(=O)cc(-c4ccccc4Cl)oc23)[C@@H]1CO`, the IC50 in assay [3] was 2800 nM; in [4] it was 580 nM.

`O=c1c(O)c(-c2ccc(O)c(O)c2)oc2cc(O)ccc12`: in assay [2], the inhibition was found to be 85%.

Consider `CN1CC[C@@H](c2c(O)cc(O)c3c(=O)cc(-c4ccc(C(F)(F)F)cc4Cl)oc23)[C@@H]1CO` [VORUCICLIB], for which the IC50 in [5], in assay [6] and in assay [7] was less than 100 nM each time. As for `CN1CC[C@H](c2c(O)cc(O)c3c(=O)cc(-c4ccccc4Cl)oc23)[C@H]1CO`, the IC50 came to 21000 nM in assay [3] and 17900 nM in assay [4]. For `O=c1c(O)c(-c2cc(O)c(O)c(O)c2)oc2cc(O)cc(O)c12` [MYRICETIN], in assay [8], the IC50 came out at 7.8 µM. For the compound `O=c1c(O)c(-c2ccc(O)c(O)c2)oc2cc(O)cc(O)c12`, the inhibition in assay [2] is 64%.

Compound `O=c1c(O)c(-c2ccc(O)c(O)c2)oc2cc(O)c(O)c(O)c12` had an ED50 in [9] of 5.5 µM. For `CN1CC[C@H](c2c(O)cc(O)c3c(=O)cc(-c4ccccc4Cl)oc23)[C@H](O)C1` [ALVOCIDIB], the IC50 in assay [10] was 16 µM; in assay [11], 60 nM; in assay [12], 122 to 145 µM; in assay [13], 34 µM. In the case of `CN1CC[C@@H](c2c(O)cc(O)c3c(=O)cc(-c4ccc([N+](=O)[O-])cc4Cl)oc23)[C@@H]1CO`, the IC50 came to 1700 nM in assay [3] and 1200 nM in assay [4].

One may read the IC50 as the concentration that inhibits the measured activity by half. Broadly, the inhibition is the share of the control response that was lost under treatment.
